Measured values from ChEMBL document CHEMBL1201862, “PubChem BioAssay data set” (2004).
Active and inactive are the calls of the source.

Experiments:
[1] = biological target: T1, Microphthalmia-associated transcription factor (Homo sapiens, UniProt O75030); test: TRPM1 promoter luciferase signal decrease, dose response, MITF inhibitor project, cell-based, SK-MEL-5, cherry-picked, set 3 (AID 493073); assay type: functional
T1 sequence (O75030 whole entry): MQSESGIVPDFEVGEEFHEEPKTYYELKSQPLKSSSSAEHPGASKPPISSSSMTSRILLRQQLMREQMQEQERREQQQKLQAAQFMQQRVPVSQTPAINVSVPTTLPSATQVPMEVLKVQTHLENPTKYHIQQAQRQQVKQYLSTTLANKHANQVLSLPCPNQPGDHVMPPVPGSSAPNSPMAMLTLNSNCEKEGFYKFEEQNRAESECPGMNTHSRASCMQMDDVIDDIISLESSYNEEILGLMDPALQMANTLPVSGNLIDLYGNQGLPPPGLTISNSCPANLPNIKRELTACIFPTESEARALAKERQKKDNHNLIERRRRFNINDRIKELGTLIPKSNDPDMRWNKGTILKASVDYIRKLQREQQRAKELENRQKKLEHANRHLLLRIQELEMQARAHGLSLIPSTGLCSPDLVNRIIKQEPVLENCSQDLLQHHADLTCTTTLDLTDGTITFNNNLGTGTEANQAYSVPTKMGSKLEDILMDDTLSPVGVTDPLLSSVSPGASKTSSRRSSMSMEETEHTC

cells [2] = assay type: functional, cell-based
cells [3] = assay type: functional, cell-based; remark: listed apart in the source
[4] = biological target: T2, Heat shock factor protein 1 (Mus musculus, UniProt P38532); test: inhibition of MG132-induced HSE-luciferase signal, confirmation, cell-based, NIH3T3, luminescence, dose retest (AID 2382); assay type: functional;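 further: NIH3T3 fibroblasts with HSF1-driven luciferase reporter stressed by proteasome inhibitor MG132; luminescence from HSF1-driven luciferase expression after 8 hours of MG132 stress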
T2 sequence (P38532 whole entry): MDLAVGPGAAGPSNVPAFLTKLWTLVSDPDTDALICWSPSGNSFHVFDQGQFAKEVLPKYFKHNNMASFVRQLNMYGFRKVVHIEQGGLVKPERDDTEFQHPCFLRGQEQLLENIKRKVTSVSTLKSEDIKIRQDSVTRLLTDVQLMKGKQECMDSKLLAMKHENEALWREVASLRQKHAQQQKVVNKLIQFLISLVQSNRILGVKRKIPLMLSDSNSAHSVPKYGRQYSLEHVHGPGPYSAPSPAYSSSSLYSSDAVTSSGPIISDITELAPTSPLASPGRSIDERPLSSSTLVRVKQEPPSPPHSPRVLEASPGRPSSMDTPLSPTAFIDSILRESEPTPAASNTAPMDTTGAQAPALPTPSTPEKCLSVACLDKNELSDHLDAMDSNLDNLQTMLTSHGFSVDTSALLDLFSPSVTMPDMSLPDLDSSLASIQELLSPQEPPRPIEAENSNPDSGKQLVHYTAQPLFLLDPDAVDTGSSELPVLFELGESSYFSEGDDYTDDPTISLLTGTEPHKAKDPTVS

[5] = Luminescence Cell-Based Dose Confirmation HTS to Identify Activators of 5'UTR Stem-Loop Driven Alpha-Synuclein mRNA Translation in H4 Neuroglioblastoma Cells. [Related pubchem assays: 1829 (Project Summary), 1814 (Primary HTS)]; assay type: functional
[6] = Luminescence Cell-Based Dose Response HTS to Identify Activators of Luciferase Translation or Activity in H4 […] Cells. [Related pubchem assays: 1829 (Project Summary), 1814 (Primary HTS)]; assay type: functional
H4 = test: Luminescence Cell-Based Dose Response HTS to Identify Activators of 5'UTR Stem-Loop Driven Prion Protein mRNA Translation in H4 Neuroglioblastoma Cells. [Related pubchem assays: 1829 (Project Summary), 1814 (Primary HTS)]; assay type: functional; conditions: Homo sapiens
Prothrombin = Prothrombin (Homo sapiens, UniProt P00734); test: Thrombin 1536 HTS Dose Response Confirmation. [Related pubchem assays: 1046 (Thrombin 1536 HTS; hits were confirmed in this assay)]; assay type: functional
[7] = biological target: T3, Trace amine-associated receptor 1 (Homo sapiens, UniProt Q96RJ0); test: Fluorescence-based cell-based high throughput dose response assay to identify agonists of the human trace amine associated receptor 1 (TAAR1).; assay type: functional
T3 sequence (Q96RJ0 whole entry): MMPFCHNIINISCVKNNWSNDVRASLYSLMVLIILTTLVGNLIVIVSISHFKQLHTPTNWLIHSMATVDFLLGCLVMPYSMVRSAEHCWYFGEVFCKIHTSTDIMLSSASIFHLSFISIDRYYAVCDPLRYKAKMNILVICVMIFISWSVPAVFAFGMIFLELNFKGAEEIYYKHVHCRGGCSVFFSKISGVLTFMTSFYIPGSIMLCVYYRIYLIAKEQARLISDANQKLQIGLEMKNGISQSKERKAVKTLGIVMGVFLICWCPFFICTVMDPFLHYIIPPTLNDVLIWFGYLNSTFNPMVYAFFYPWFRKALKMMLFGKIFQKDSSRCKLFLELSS

[8] = biological target: T3, Trace amine-associated receptor 1; test: Counterscreen for agonists of the human trace amine associated receptor 1 (hTAAR1): Fluorescence-based cell-based high throughput dose response assay to identify hTAAR1 agonist that also desensitize TAAR1 receptor response.; assay type: functional
[9] = biological target: Luciferin 4-monooxygenase (Photinus pyralis, UniProt P08659); test: firefly luciferase enzyme inhibitors, dose response, biochemical, luminescence (AID 1891)
[10] = Luminescence Cell-Based Dose Confirmation HTS to Identify Inhibitors of Platelet Dense Granule Release. [Related pubchem assays: 1663 (Primary HTS), 1678 (Summary of Project)]; assay type: functional
[11] = inhibitors of intracellular T. cruzi replication, confirmation, NIH3T3 host cells, beta-gal luminescence (AID 2044); assay type: functional, cell-based;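 further: intracellular parasites grown in NIH/3T3 mouse fibroblasts as host cells; luminescent beta-galactosidase reporter signal from transgenic T. cruzi replicating inside host cells; inhibitors lower the luminescence signal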
[12] = cytotoxicity toward NIH3T3 fibroblasts, dose response, counter-screen, cell-based, ATP luminescence, mouse fibroblasts (AID 2010); assay type: functional;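 further: cells exposed to compound for about 90 hours before reading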
[13] = Luminescence Cell-Based Dose Retest to Confirm Inhibitors of Cancer Stem Cells. [Related pubchem assays (depositor defined):AID2717, AID2721]; assay type: functional; conditions: Homo sapiens
P388/ADR = test: cells; assay type: functional; conditions: Mus musculus
P388 = test: cells; assay type: functional; conditions: Mus musculus
SN12K1 = test: cells; assay type: functional; conditions: Homo sapiens
Protein skinhead-1 = biological target: T4, Protein skinhead-1 (Caenorhabditis elegans, UniProt P34707); assay type: functional
T4 sequence (P34707 whole entry): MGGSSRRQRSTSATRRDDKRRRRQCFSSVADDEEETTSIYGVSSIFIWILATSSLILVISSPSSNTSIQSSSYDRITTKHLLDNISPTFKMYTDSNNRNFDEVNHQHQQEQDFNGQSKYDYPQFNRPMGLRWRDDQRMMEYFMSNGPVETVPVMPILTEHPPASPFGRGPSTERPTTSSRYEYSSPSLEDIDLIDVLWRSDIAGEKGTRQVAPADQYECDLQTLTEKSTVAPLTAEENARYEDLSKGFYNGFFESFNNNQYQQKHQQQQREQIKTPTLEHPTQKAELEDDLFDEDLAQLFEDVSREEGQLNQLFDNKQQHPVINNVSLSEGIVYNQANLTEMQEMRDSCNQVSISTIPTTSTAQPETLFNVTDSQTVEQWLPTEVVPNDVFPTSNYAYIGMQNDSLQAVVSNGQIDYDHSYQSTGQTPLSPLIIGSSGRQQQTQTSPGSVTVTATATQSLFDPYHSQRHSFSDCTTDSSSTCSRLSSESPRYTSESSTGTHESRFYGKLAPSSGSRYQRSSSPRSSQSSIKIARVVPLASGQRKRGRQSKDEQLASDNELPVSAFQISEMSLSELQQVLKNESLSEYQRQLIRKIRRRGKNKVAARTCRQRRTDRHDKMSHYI

[14] = P. falciparum Dd2 growth inhibitors, dose response, SYBR Green, cherry-picked samples (AID 1159567); assay type: functional, cell-based

Luciferin 4-monooxygenase, sequence (P08659 whole entry): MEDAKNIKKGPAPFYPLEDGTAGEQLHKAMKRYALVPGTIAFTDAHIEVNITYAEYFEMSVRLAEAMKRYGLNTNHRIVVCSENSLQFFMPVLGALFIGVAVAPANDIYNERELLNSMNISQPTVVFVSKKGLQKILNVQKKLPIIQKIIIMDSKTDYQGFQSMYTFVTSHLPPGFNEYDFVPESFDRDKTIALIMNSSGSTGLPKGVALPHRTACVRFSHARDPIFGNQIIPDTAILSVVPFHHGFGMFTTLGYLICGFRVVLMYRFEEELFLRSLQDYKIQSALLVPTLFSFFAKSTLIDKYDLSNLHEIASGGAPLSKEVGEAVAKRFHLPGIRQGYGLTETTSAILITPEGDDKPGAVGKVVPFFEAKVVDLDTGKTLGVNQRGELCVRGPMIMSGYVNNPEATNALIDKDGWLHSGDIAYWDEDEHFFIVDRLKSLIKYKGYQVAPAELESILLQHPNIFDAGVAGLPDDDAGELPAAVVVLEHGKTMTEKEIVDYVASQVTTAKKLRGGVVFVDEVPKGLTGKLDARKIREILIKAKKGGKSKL

## Cc1cnc(NC(=O)c2nn(C)cc2[N+](=O)[O-])s1
[1]
  AC50: 20.6 µM (active)

## CC(C)=N/N=C(\N)SCc1ccccc1
Cells [2]
  IC50: > 29.9 µM (inactive)
Cells [3]
  EC50: > 29.9 µM (inactive)

## NCCN1C(=O)S/C(=C\c2ccc3c(c2)OCO3)C1=O
[4]
  EC50: 1.48 µM (active)
[1]
  AC50: 22.3 µM (active)

## O=C(c1ccco1)n1nc(-c2ccccc2)nc1SCc1ccccc1
[5]
  EC50: > 120 µM (not active)
[6]
  EC50: 40.1 µM (active)
H4
  EC50: 19.6 µM (active)
Prothrombin
  IC50: 0.695 µM (active)

## CCOc1ccccc1C(=O)Nc1nnc(SCC(=O)N2CCOCC2)s1
Prothrombin
  IC50: > 50 µM (not active)

## CCNC1=NN=C(c2cc(C)n(CCc3ccccc3)c2C)CS1
Cells [2]
  IC50: > 29.9 µM (inactive)
[7]
  EC50: 0.373 µM (active)
[8]
  IC50: 1.06 µM (active)
Cells [3]
  EC50: > 29.9 µM (inactive)

## CC(C)(C)NC(=O)c1cc([N+](=O)[O-])ccc1N1CCCCC1
Prothrombin
  IC50: > 50 µM (not active)

## Clc1ccc(-c2nc3cc[nH]cc-3n2)cc1
[9]
  EC50: 1 µM (active)
[10]
  EC50: 10 µM (active)
Cells [2]
  IC50: > 29.9 µM (inactive)
[7]
  EC50: > 29.9 µM (inactive)
[8]
  IC50: > 29.9 µM (inactive)
Cells [3]
  EC50: > 29.9 µM (inactive)

## Cc1ccc2sc(N(CCCN(C)C)C(=O)c3ccc(S(=O)(=O)N(C)C4CCCCC4)cc3)nc2c1C
[11]
  EC50: 0.148 µM (active)
[12]
  EC50: 10.3 µM (active)
[13]
  AC50: 3.72 µM (active)
[1]
  AC50: 18 µM (active)

## CCC(=O)NC(=S)Nc1cccc(NC(=O)c2ccccc2)c1
Prothrombin
  IC50: > 50 µM (not active)

## CC[C@@H](C)[C@H]([C@H](CC(=O)N1CCC[C@@H]1[C@@H](OC)[C@H](C)C(=O)N[C@H](Cc1ccccc1)c1nccs1)OC)N(C)C(=O)[C@H](NC(=O)[C@@H](C(C)C)N(C)C)C(C)C
P388/ADR
  GI50: 0.000425 µM (active)
P388
  GI50: 0.000425 µM (active)

## CSc1nc2c(ncn2C2OC(CO)C(O)C(O)C2O)c(=O)n1C (stereo not drawn)
P388/ADR
  GI50: > 10 µM (inactive)
SN12K1
  GI50: > 100 µM (inactive)
P388
  GI50: > 100 µM (inactive)

## O=NN1C(c2ccccc2)C2CCCC(C2=O)C1c1ccccc1 (stereo not drawn)
P388/ADR
  GI50: 22.5 µM (inactive)
SN12K1
  GI50: 26.5 µM (inactive)
P388
  GI50: 36.3 µM (inactive)

## O=[N+]([O-])c1ccc(/C=C/c2ccc(/N=N/c3ccc(/C=C/c4ccc([N+](=O)[O-])cc4S(=O)(=O)O)c(S(=O)(=O)O)c3)cc2S(=O)(=O)O)c(S(=O)(=O)O)c1
P388/ADR
  GI50: > 100 µM (inactive)
SN12K1
  GI50: > 100 µM (inactive)
P388
  GI50: > 100 µM (inactive)

## COC1/C=C/O[C@@]2(C)Oc3c(C)c(O)c4c(O)c(cc(O)c4c3C2=O)NC(=O)/C(C)=C\C=C\[C@H](C)C(O)[C@@H](C)[C@@H](O)[C@@H](C)[C@H](OC(C)=O)[C@@H]1C (stereo partly drawn)
P388/ADR
  GI50: 10.9 µM (inactive)
SN12K1
  GI50: 15.2 µM (inactive)
P388
  GI50: 5.41 µM (inactive)

## COC(=O)[C@@]12C[C@@H](CC(=O)NCCc3ccccc3OC)C(=O)N(Cc3ccc4c(c3)OCO4)C1=CCC(C)(C)C2
Cells [2]
  IC50: > 29.9 µM (inactive)
[7]
  EC50: 2.4 µM (active)
[8]
  IC50: 6.93 µM (active)
Cells [3]
  EC50: > 29.9 µM (inactive)

## O=C(NC(c1ccc(-c2ccccc2)cc1)c1cnccn1)C1CCN(Cc2cccs2)CC1 (stereo not drawn)
Protein skinhead-1
  IC50: > 100 µM (inactive)

## O=C(N[C@H](C(=O)N1CCC[C@H]1C(=O)NCCc1ccccc1Cl)C1CCCCC1)c1ccccc1
Cells [2]
  IC50: > 29.9 µM (inactive)
[7]
  EC50: 5.2 µM (active)
[8]
  IC50: 5.04 µM (active)
Cells [3]
  EC50: > 29.9 µM (inactive)

## CCOC(=O)N[C@H](C(=O)N1CCC[C@H]1C(=O)NCCc1ccccc1Cl)C1CCCCC1
Cells [2]
  IC50: > 29.9 µM (inactive)
[7]
  EC50: 1.91 µM (active)
[8]
  IC50: 2.33 µM (active)
Cells [3]
  EC50: > 29.9 µM (inactive)

## Oc1nncc(N/N=C/c2ccccc2)c1Cl
Cells [2]
  IC50: > 29.9 µM (inactive)
[7]
  EC50: 0.29 µM (active)
[8]
  IC50: 0.981 µM (active)
Cells [3]
  EC50: > 29.9 µM (inactive)

## CCS(=O)(=O)N1CC(=O)N2[C@H](CO)[C@@H](c3ccc(-c4ccccc4F)cc3)[C@@H]2C1
[14]
  AC50: 13.6 µM (active)

## COc1ccc(CN2C[C@@H](C)[C@@H](OC)CN(C)C(=O)c3cc(NC(=O)c4nc5ccccc5s4)ccc3OC[C@H]2C)cc1
[14]
  AC50: 6.65 µM (active)

## COc1ccc2c3c([nH]c2c1)[C@H](CO)N(Cc1ccccc1)CC31CCN(CC2CC2)CC1
[14]
  AC50: 2.62 µM (active)

## CCCCCCCCCCCCCCCCCCOCC(COP(=O)([O-])OCC[N+](C)(C)C)OC (stereo not drawn) [EDELFOSINE]
P388/ADR
  GI50: 4.07 µM (inactive)
SN12K1
  GI50: 11.2 µM (inactive)
P388
  GI50: 2.65 µM (inactive)
